Measurements reported in patent EP3932936A1, “POLYPEPTIDE HAVING ANTIBACTERIAL ACTIVITY, COMPOSITION FOR PREVENTING OR TREATING SEPSIS COMPRISING SAME, AND ANTIBACTERIAL COMPOSITION” (Dandi Bioscience Inc, priority 2019, dated 2022).
No end group written: not given here.

Legend:
[1] = In vivo toxicity (survival rate for 72 hours); design: species or system ICR mice; conditions: ratio of a drug dose exhibiting toxicity to a drug dose for exhibiting a desired response
Protocol: To confirm the therapeutic and pharmaceutical effects of an acetate salt substitution of allD FP13-NH2, a septic animal model induced by intraperitoneally administering each of the Escherichia coli (standard strain and ESBL) strains or a normal mouse was treated with the peptide allD FP13-NH2 (AcOH). The antibiotic effect, the toxicity, and the inhibitory activity of […] cytokine IL-6 of the salt substitution with those of the same peptide at the end of trifluoroacetic acid (TFA) were compared.
An experimental method is as follows: Six-week-old female ICR mice (SPF mice, Samtako) with an average body weight of 25 g were used as experimental animals. The experimental animals were provided with sterile feed and water and bred with less than 10 mice per cage, and a day/night cycle was 12 hours.
To evaluate in vivo toxicity, the mice were divided into groups (n=5 or 6 per group) per experiment, and intraperitoneally treated six times with allD FP13-NH2 (TFA) and allD FP13-NH2 (AcOH) mixed with […]'S DEX solution (vehicle) at 0, 1, 2, 3, 4, or 5 hours, followed by observing a survival rate at intervals of 12 hours for 72 hours.

[2] = LPS binding affinity (Kd) by Isothermal Titration Calorimeter (ITC); design: species or system E. coli K1; conditions: stated in words relative to FP1 (wild type, WT)
Source text: FP1 (ADK 44-54) is denoted by wild type (WT), and peptides in which a point mutation occurred at various sites in WT were manufactured (FP3, FP5, FP6, and FP9). To increase the interaction with LPS in a residue sequence of FP3, peptides were designed based on FP3- and LPS-binding models (FP12-NH2 and FP13-NH2), and peptides were designed by additionally introducing a non-natural amino acid and an amino acid isomer (allomeric D-type amino acid) (allD FP12-NH2, allD FP13-NH2, allD FP-13-9a, allD FP-13-9w, allD FP-13-9k, and allD FP13-NH2 (AcOH)). In addition, an N-terminus PEGylated peptide (PEG-alld FP13-NH2 (AcOH)) was additionally designed, synthesized, and provided by ANYGEN, Co. Ltd. The binding affinity between each of the provided peptides and lipopolysaccharide (LPS) was confirmed through measuring the binding affinity (Kd) using Isothermal Titration Calorimeter (ITC).
Specifically, a method of analyzing binding affinity (Kd) between a peptide and LPS is as follows.
Measurement was carried out using a Malvern MicroCal PEAQ-ITC cell instrument, and the following pretreatment was carried out to confirm interaction with LPS. The amount and morphology of a sample cell are 300 µL and coin-shaped, fixed-in-place, respectively; a syringe rotation rate was 1,200 rpm; and a temperature was 30 °C, 35 °C or 25 °C.
Before the experiment, LPS and the peptide were previously diluted with PBS, thereby preparing 2 mM LPS and 0.2 mM peptide. 300 µL of the peptide was added into cells in the ITC instrument, which had been washed, and 40 µL of LPS was put into a syringe. After measurement conditions for ITC (temperature, number of injections) were set, the syringe was inserted into the cell, and ITC measurement was started. When the measurement was completed, analysis is performed, and the Kd values of LPS and the peptide were calculated.

[3] = Calcein dye leakage from liposome mimicking red blood cell membrane; conditions: for dye leakage: PC/CH (1:1, w/w) liposome mimicking a red blood cell membrane in a mammal, FIG. 3
Protocol: (§1) To study an action mechanism for FP12-NH2, FP13-NH2, allD FP12-NH2, and allD FP13-NH2 peptides, the disruption ability of the peptides against liposomes mimicking a bacterial cell membrane and a red blood cell membrane was measured.
(§2) EYPG is an abbreviation for egg yolk L-α-phosphatidyl-DL-glycerol, and EYPC is an abbreviation for egg yolk 1,2-diacyl-sn-glycero-3-phosphocholine. CH is an abbreviation for cholesterol. After dissolving the phospholipids composed according to the content of each component in chloroform, the chloroform was removed using a rotary evaporator, and lyophilization was performed overnight. Afterward, the dried lipid film was dissolved in a Tris-buffer solution, and calcein […]. After repeated freezing and thawing, the calcein-encapsulated liposome was manufactured using an extruder. Subsequently, after an excitation wavelength of a spectrofluorimeter (Shimadzu RF 5301 PC spectrofluorimeter, Japan) was set to 490 nm, and an emission wavelength was set to 520 nm, the peptide was administered to the liposome to measure relative dye leakage, provided that a 100% dye leakage was expressed as fluorescence intensity when 0.01% Triton-Xioo was added.
The upper graphs of FIG. 3 show the % dye leakage for an EYPC/EYPG (7:3, w/w) liposome mimicking bacterial cells, encapsulating a fluorescent dye, calcein, by a peptide according to a peptide concentration. […] The lower graphs of FIG. […]

S. aureus = conditions: after treatment with proteolytic enzyme
[4] = Calcein dye leakage from liposome mimicking gram-negative bacterial cell membrane; conditions: PC/PG (7:3, w/w) liposome; even at a low concentration
Protocol: as §1
as §2, with “added. […]” for “added.”

red blood cells = assay: Red blood cell hemolytic activity; format: cell-based, human; conditions: even at a low concentration; control peptide
Protocol: The following experiment was carried out to determine the toxicity of a peptide through measurement of the red blood cell hemolytic activity in a human.
The red blood cells in a human were diluted with PBS for washing, and centrifuged for 10 minutes, the washing process was repeated three times. The 8.0% red blood cell solution diluted with PBS was loaded into a 96-well microtiter plate by 100 µL and 100 µL of a peptide solution was mixed, the mixture was incubated at 37 °C for 1 hour, and then the 96-well microtiter plate was centrifuged for 5 minutes. A 100 µL of supernatant was taken and transferred to another 96-well microtiter plate, and then absorbance was measured at 405 nm. Here, a value obtained when treated with 0.1% Triton X-100 was calculated as 100% hemolysis, and the hemolytic activity of the peptide was calculated as % hemolysis by Equation 1 below. Cell disruption rate(%Hemolysis) = (A−C)/(B−C) × 100 [formula]
Here, A is the absorbance at 405 nm in a peptide solution, B is the absorbance at 405 nm in a 0.1% Triton X-100, and C is the absorbance at 405 nm in a PBS solution.

Which “therapeutic index = LD50/ED50” value [1] does the source give for `CC(C)C[C@@H](NC(=O)[C@H](N)CCCCN)C(=O)N[C@H](CCCNC(=N)N)C(=O)N[C@@H](C(=O)N[C@H](CCCCN)C(=O)N[C@H](CC(C)C)C(=O)N[C@H](CCCNC(=N)N)C(=O)N[C@H](CCCNC(=N)N)C(=O)N[C@H](Cc1ccc(O)cc1)C(=O)N[C@H](CC(C)C)C(=O)N[C@H](CCCNC(=N)N)C(N)=O)C(C)C` [allD FP13-NH2 (AcOH)] here?
Its value is “greater than 80”.

Which LPS binding affinity [2] does the source give for KLRVKLRRALR [allD FP-13-9a] here?
Its LPS binding affinity is “strong LPS binding affinity, which is equal to or higher than that of FP1”.

For `CC(C)C[C@@H](NC(=O)[C@H](N)CCCCN)C(=O)N[C@H](CCCNC(=N)N)C(=O)N[C@@H](C(=O)N[C@H](CCCCN)C(=O)N[C@H](CC(C)C)C(=O)N[C@H](CCCNC(=N)N)C(=O)N[C@H](CCCNC(=N)N)C(=O)N[C@H](Cc1ccc(O)cc1)C(=O)N[C@H](CC(C)C)C(=O)N[C@H](CCCNC(=N)N)C(N)=O)C(C)C` [allD FP13-NH2], which dye leakage [3] is on record?
Its dye leakage is “almost no dye leakage”.

And the “stability (proteolytic enzyme resistance)” value (S. aureus)?
The value was “very high stability”.

Which dye leakage [3] does the source give for `CC(C)C[C@@H](NC(=O)[C@H](N)CCCNC(=N)N)C(=O)N[C@H](CCCNC(=N)N)C(=O)N[C@@H](C(=O)N[C@H](CCCCN)C(=O)N[C@H](CC(C)C)C(=O)N[C@H](CCCNC(=N)N)C(=O)N[C@H](CCCNC(=N)N)C(=O)N[C@H](Cc1ccc(O)cc1)C(=O)N[C@H](CC(C)C)C(=O)N[C@H](CCCNC(=N)N)C(N)=O)C(C)C` [allD FP12-NH2] here?
The dye leakage was “almost no dye leakage”.

And the “stability (proteolytic enzyme resistance)” value (S. aureus)?
Its value is “very high stability”.

With KLRVKLRRKLR [allD FP-13-9k] as the compound, how does the LPS binding affinity [2] read?
Its LPS binding affinity is “strong LPS binding affinity, which is equal to or higher than that of FP1”.

Which dye leakage [3] does the source give for `CC(C)C[C@H](NC(=O)[C@H](Cc1ccc(O)cc1)NC(=O)[C@H](CCCNC(=N)N)NC(=O)[C@H](CCCNC(=N)N)NC(=O)[C@H](CC(C)C)NC(=O)[C@H](CCCCN)NC(=O)[C@@H](NC(=O)[C@H](CCCNC(=N)N)NC(=O)[C@H](CC(C)C)NC(=O)[C@@H](N)CCCNC(=N)N)C(C)C)C(=O)N[C@@H](CCCNC(=N)N)C(N)=O` [FP12-NH2] here?
The dye leakage was “almost no dye leakage”.

For KLRVKLRRWLR [allD FP-13-9w], which LPS binding affinity [2] is on record?
Its LPS binding affinity is “strong LPS binding affinity, which is equal to or higher than that of FP1”.

With `CC(C)C[C@H](NC(=O)[C@H](Cc1ccc(O)cc1)NC(=O)[C@H](CCCNC(=N)N)NC(=O)[C@H](CCCNC(=N)N)NC(=O)[C@H](CC(C)C)NC(=O)[C@H](CCCCN)NC(=O)[C@@H](NC(=O)[C@H](CCCNC(=N)N)NC(=O)[C@H](CC(C)C)NC(=O)[C@@H](N)CCCCN)C(C)C)C(=O)N[C@@H](CCCNC(=N)N)C(N)=O` [FP13-NH2] as the compound, how does the dye leakage [3] read?
The dye leakage was “almost no dye leakage”.

Which calcein leakage ([3]; PC/CH (10:1, w/w) liposome mimicking a human red blood cell, 0.25 µM) does the source give for melittin here?
The calcein leakage was about 100%.

What about the calcein leakage [4] of the same compound?
The calcein leakage was “responsible for calcein leakage”.

And the hemolytic activity (red blood cells)?
Its hemolytic activity is 100%.
